Source: ChEMBL document CHEMBL1137659, “Molecular epidemiology of clinical isolates of carbapenem-resistant Acinetobacter spp. from Chinese hospitals” (2007)
≈ marks a conversion by molar mass, not a printed value.

Columns and labels:
[1] = test system: Acinetobacter genospecies 3; assay: Antimicrobial activity against imipenem and meropenem-resistant Acinetobacter genospecies 3 isolate PUA7 by CLSI agar dilution method
[2] = test system: Acinetobacter genospecies 10/11; assay: Antimicrobial activity against imipenem and meropenem-resistant Acinetobacter genospecies 10/11 isolate ZS15 by CLSI agar dilution method
Acinetobacter baumannii [3] = assay: Antimicrobial activity against imipenem and meropenem-resistant Acinetobacter baumannii isolate PUA1 by CLSI agar dilution method; type: functional
Acinetobacter baumannii [4] = assay: Antimicrobial activity against imipenem and meropenem-resistant Acinetobacter baumannii isolate FZ84 by CLSI agar dilution method; type: functional
Acinetobacter baumannii [5] = assay: Antimicrobial activity against imipenem and meropenem-resistant Acinetobacter baumannii isolate PU73 by CLSI agar dilution method; type: functional
Acinetobacter baumannii [6] = assay: Antimicrobial activity against imipenem and meropenem-resistant Acinetobacter baumannii isolate ZJ36 by CLSI agar dilution method; type: functional
Acinetobacter baumannii [7] = assay: Antimicrobial activity against imipenem and meropenem-resistant Acinetobacter baumannii isolate JN45 by CLSI agar dilution method; type: functional
Acinetobacter baumannii [8] = assay: Antimicrobial activity against imipenem and meropenem-resistant Acinetobacter baumannii isolate FW-F1 by CLSI agar dilution method; type: functional
[9] = test system: Acinetobacter genospecies 10/11; assay: Antimicrobial activity against imipenem and meropenem-resistant Acinetobacter genospecies 10/11 isolate ZS5 by CLSI agar dilution method
Acinetobacter baumannii [10] = assay: Antimicrobial activity against imipenem and meropenem-resistant Acinetobacter baumannii isolate ZJ32 by CLSI agar dilution method; type: functional
[11] = test system: Acinetobacter genospecies 3 (Acinetobacter genomosp. 3); assay: Antimicrobial activity against imipenem and meropenem-resistant Acinetobacter genospecies 3 isolate PU78 by CLSI agar dilution method; settings: Acinetobacter genospecies 3, isolate PU78
[12] = test system: Acinetobacter genospecies 13TU; assay: Antimicrobial activity against imipenem and meropenem-resistant Acinetobacter genospecies 13TU isolate CY6 by CLSI agar dilution method
Acinetobacter baumannii [13] = assay: Antimicrobial activity against imipenem and meropenem-resistant Acinetobacter baumannii isolate ZJ58 by CLSI agar dilution method; type: functional
[14] = test system: Acinetobacter phenon 6/ct 13TU; assay: Antimicrobial activity against imipenem and meropenem-resistant Acinetobacter phenon 6/ct 13TU isolate FZ4A18 by CLSI agar dilution method
Acinetobacter baumannii [15] = assay: Antimicrobial activity against imipenem and meropenem-resistant Acinetobacter baumannii isolate BJ55 by CLSI agar dilution method; type: functional
Acinetobacter baumannii [16] = assay: Antimicrobial activity against imipenem and meropenem-resistant Acinetobacter baumannii isolate BJ3-9 by CLSI agar dilution method; type: functional
Acinetobacter baumannii [17] = assay: Antimicrobial activity against imipenem and meropenem-resistant Acinetobacter baumannii isolate PU4A22 by CLSI agar dilution method; type: functional
Acinetobacter baumannii [18] = assay: Antimicrobial activity against imipenem and meropenem-resistant Acinetobacter baumannii isolate ZJ49 by CLSI agar dilution method; type: functional
Acinetobacter baumannii [19] = assay: Antimicrobial activity against imipenem and meropenem-resistant Acinetobacter baumannii isolate PU4A1 by CLSI agar dilution method; type: functional
Acinetobacter baumannii [20] = assay: Antimicrobial activity against imipenem and meropenem-resistant Acinetobacter baumannii isolate BJ3-23 by CLSI agar dilution method; type: functional
[21] = test system: Acinetobacter phenon 6/ct 13TU (Acinetobacter sp.); assay: Antimicrobial activity against imipenem and meropenem-resistant Acinetobacter phenon 6/ct 13TU isolate PU86 by CLSI agar dilution method
Acinetobacter phenon 5 = assay: Antimicrobial activity against imipenem and meropenem-resistant Acinetobacter phenon 5 isolate PUA6 by CLSI agar dilution method
Acinetobacter baumannii [22] = assay: Antimicrobial activity against imipenem and meropenem-resistant Acinetobacter baumannii isolate CY7 by CLSI agar dilution method; type: functional
Acinetobacter baumannii [23] = assay: Antimicrobial activity against imipenem and meropenem-resistant Acinetobacter baumannii isolate DL34 by CLSI agar dilution method; type: functional
Acinetobacter baumannii [24] = assay: Antimicrobial activity against imipenem and meropenem-resistant Acinetobacter baumannii isolate BJ52 by CLSI agar dilution method; type: functional
Acinetobacter baumannii [25] = assay: Antimicrobial activity against imipenem and meropenem-resistant Acinetobacter baumannii isolate NJ59 by CLSI agar dilution method; type: functional
[26] = test system: Acinetobacter genospecies 3; assay: Antimicrobial activity against imipenem and meropenem-resistant Acinetobacter genospecies 3 isolate PU78 by CLSI agar dilution method
[27] = test system: Acinetobacter phenon 6/ct 13TU; assay: Antimicrobial activity against imipenem and meropenem-resistant Acinetobacter phenon 6/ct 13TU isolate PU86 by CLSI agar dilution method

Row | Compound | MIC [1] | MIC [2] | MIC (Acinetobacter baumannii [3]) | MIC (Acinetobacter baumannii [4]) | MIC (Acinetobacter baumannii [5]) | MIC (Acinetobacter baumannii [6]) | MIC (Acinetobacter baumannii [7]) | MIC (Acinetobacter baumannii [8]) | MIC [9] | MIC (Acinetobacter baumannii [10]) | MIC [12] | MIC (Acinetobacter baumannii [13]) | MIC (Acinetobacter baumannii [15]) | MIC (Acinetobacter baumannii [16]) | MIC (Acinetobacter baumannii [17]) | MIC (Acinetobacter baumannii [18]) | MIC (Acinetobacter baumannii [19]) | MIC (Acinetobacter baumannii [20]) | MIC (Acinetobacter phenon 5) | MIC (Acinetobacter baumannii [22]) | other results
1 | C[C@H]1COc2c(N3CCN(C)CC3)c(F)cc3c(=O)c(C(=O)O)cn1c23.C[C@H]1COc2c(N3CCN(C)CC3)c(F)cc3c(=O)c(C(=O)O)cn1c23.O [LEVOFLOXACIN] | 0.06 µg/mL | 4 µg/mL | 16 µg/mL | > 32 µg/mL | 16 µg/mL | 4 µg/mL | 0.5 µg/mL | 4 µg/mL | > 32 µg/mL | 16 µg/mL | 0.12 µg/mL | > 32 µg/mL | 16 µg/mL | 4 µg/mL | 4 µg/mL | 4 µg/mL | 4 µg/mL | 4 µg/mL | 0.06 µg/mL | > 32 µg/mL | MIC [11]: 0.125 µg/mL; MIC [14]: 0.12 µg/mL; MIC [21]: 0.125 µg/mL
2 | C[C@@H](O)[C@H]1C(=O)N2C(C(=O)O)=C(S[C@@H]3CN[C@H](C(=O)N(C)C)C3)[C@H](C)[C@H]12 [MEROPENEM] | 32 µg/mL (≈ 83.4 µM) | 64 µg/mL (≈ 167 µM) | 64 µg/mL (≈ 167 µM) | 16 µg/mL (≈ 41.7 µM) | 64 µg/mL (≈ 167 µM) | 16 µg/mL (≈ 41.7 µM) | 16 µg/mL (≈ 41.7 µM) | 64 µg/mL (≈ 167 µM) | 128 µg/mL (≈ 334 µM) | 32 µg/mL (≈ 83.4 µM) | 32 µg/mL (≈ 83.4 µM) | 32 µg/mL (≈ 83.4 µM) | 32 µg/mL (≈ 83.4 µM) | 32 µg/mL (≈ 83.4 µM) | 128 µg/mL (≈ 334 µM) | 32 µg/mL (≈ 83.4 µM) | 64 µg/mL (≈ 167 µM) | 64 µg/mL (≈ 167 µM) | 64 µg/mL (≈ 167 µM) | 64 µg/mL (≈ 167 µM) | MIC (Acinetobacter baumannii [23]): 32 µg/mL (≈ 83.4 µM); MIC (Acinetobacter baumannii [24]): 32 µg/mL (≈ 83.4 µM); MIC (Acinetobacter baumannii [25]): 16 µg/mL (≈ 41.7 µM); MIC [11]: 32 µg/mL (≈ 83.4 µM); MIC [14]: 16 µg/mL (≈ 41.7 µM); MIC [21]: 32 µg/mL (≈ 83.4 µM)
3 | CO[C@H]1/C=C/O[C@@]2(C)Oc3c(C)c(O)c4c(O)c(c(/C=N/N5CCN(C)CC5)c(O)c4c3C2=O)NC(=O)/C(C)=C\C=C\[C@H](C)[C@H](O)[C@@H](C)[C@@H](O)[C@@H](C)[C@H](OC(C)=O)[C@@H]1C [RIFAMPIN] | 128 µg/mL (≈ 156 µM) | > 256 µg/mL | 32 µg/mL (≈ 38.9 µM) | 128 µg/mL (≈ 156 µM) | 4 µg/mL (≈ 4.86 µM) | 8 µg/mL (≈ 9.72 µM) | > 256 µg/mL | 8 µg/mL (≈ 9.72 µM) | 256 µg/mL (≈ 311 µM) | 16 µg/mL (≈ 19.4 µM) | > 256 µg/mL | 8 µg/mL (≈ 9.72 µM) | 8 µg/mL (≈ 9.72 µM) | 8 µg/mL (≈ 9.72 µM) | 4 µg/mL (≈ 4.86 µM) | 8 µg/mL (≈ 9.72 µM) | 4 µg/mL (≈ 4.86 µM) | 8 µg/mL (≈ 9.72 µM) | > 256 µg/mL | 4 µg/mL (≈ 4.86 µM) | MIC (Acinetobacter baumannii [23]): 4 µg/mL (≈ 4.86 µM); MIC (Acinetobacter baumannii [24]): 8 µg/mL (≈ 9.72 µM); MIC (Acinetobacter baumannii [25]): 8 µg/mL (≈ 9.72 µM); MIC [11]: 4 µg/mL (≈ 4.86 µM); MIC [14]: 4 µg/mL (≈ 4.86 µM); MIC [21]: 256 µg/mL (≈ 311 µM)
4 | GENTAMICIN | > 256 µg/mL | – | > 256 µg/mL | > 256 µg/mL | > 256 µg/mL | 1 µg/mL | > 256 µg/mL | > 256 µg/mL | > 256 µg/mL | > 256 µg/mL | > 256 µg/mL | > 256 µg/mL | > 256 µg/mL | > 256 µg/mL | > 256 µg/mL | > 256 µg/mL | > 256 µg/mL | > 256 µg/mL | > 256 µg/mL | > 256 µg/mL | MIC (Acinetobacter baumannii [23]): > 256 µg/mL; MIC (Acinetobacter baumannii [24]): 4 µg/mL; MIC (Acinetobacter baumannii [25]): > 256 µg/mL; MIC [26]: 1 µg/mL; MIC [27]: > 256 µg/mL
